Laboratory results as given in PMC4072711, “A GPBAR1 (TGR5) Small Molecule Agonist Shows Specific Inhibitory Effects on Myeloid Cell Activation In Vitro and Reduces Experimental Autoimmune Encephalitis (EAE) In Vivo” (PLoS ONE, 2014).

Biological target: T1, GPBAR1 (TGR5) (Homo sapiens, UniProt Q8TDU6)
T1 sequence (Q8TDU6 1-330): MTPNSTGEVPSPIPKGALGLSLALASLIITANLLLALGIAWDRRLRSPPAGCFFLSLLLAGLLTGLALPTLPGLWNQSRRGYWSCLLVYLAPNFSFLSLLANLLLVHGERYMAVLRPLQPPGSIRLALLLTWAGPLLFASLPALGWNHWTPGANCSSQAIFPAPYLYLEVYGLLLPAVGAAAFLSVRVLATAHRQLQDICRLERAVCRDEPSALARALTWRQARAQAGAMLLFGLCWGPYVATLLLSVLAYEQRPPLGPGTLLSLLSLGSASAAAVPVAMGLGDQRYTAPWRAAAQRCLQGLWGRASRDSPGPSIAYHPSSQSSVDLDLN
Assay: AlphaScreen cAMP assay in CHO cells expressing human GPBAR1; no response in parental CHO cells

BIX02694
EC50: 9 nM
